Measurements: PubChem BioAssay (NCI)
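The compound was tested at five concentrations on cells cultured in 96-well plates, with a 48-hour exposure period. GI50 marks 50% less growth. TGI denotes the concentration required for complete inhibition of growth.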

What was measured:
Assay in all cases: DTP human tumour cell line panel, 48 h
[1] = system: SF-295 CNS
[2] = system: SN12C renal
[3] = system: OVCAR-5 ovarian
[4] = system: KM12 colon
[5] = system: DU-145 prostate
[6] = system: HCT-15 colon
[7] = system: SNB-19 CNS
[8] = system: OVCAR-8 ovarian
[9] = system: UACC-257 melanoma
[10] = system: SK-MEL-2 melanoma

| Structure (SMILES) | TGI [1] | TGI [2] | TGI [3] | TGI [4] | TGI [5] | TGI [6] | TGI [7] | TGI [8] | TGI [9] | TGI [10] | GI50 [1] | GI50 [2] | GI50 [3] | GI50 [4] | GI50 [5] | GI50 [6] | GI50 [7] | GI50 [8] | GI50 [10] | GI50 [9] |
| --- | --- | --- | --- | --- | --- | --- | --- | --- | --- | --- | --- | --- | --- | --- | --- | --- | --- | --- | --- | --- |
| COc1ccc(-c2cc(-c3ccc(O)cc3O)c(C#N)c(=O)[nH]2)cc1 | 34 µM | 40.9 µM | 43.3 µM | > 100 µM | > 100 µM | > 100 µM | 53.3 µM | 85.2 µM | 70.8 µM |  |  |  |  |  |  |  |  |  |  |  |
| Cn1ccc(C(=O)NCCN(CCNC(=O)c2ccn(C)c(=O)c2O)CCNC(=O)c2ccn(C)c(=O)c2O)c(O)c1=O | > 100 µM | > 100 µM | > 100 µM | > 100 µM | > 100 µM | > 100 µM | > 100 µM | > 100 µM | > 100 µM | > 100 µM |  |  |  |  |  |  |  |  |  |  |
| Cc1[nH]c(=O)[nH]c(=O)c1/C=C/C(=O)NC(CO)CS(=O)Cc1ccccc1 (stereo not drawn) | > 300 µM | > 300 µM | > 300 µM | > 300 µM |  | > 300 µM | > 300 µM | > 300 µM | > 300 µM | > 300 µM |  |  |  |  |  |  |  |  |  |  |
| COc1cc(/C=N\c2nc(-c3ccc(NS(=O)(=O)c4ccc(Cl)c(OC)c4)cc3)cs2)ccc1O | > 100 µM | > 100 µM | > 100 µM | > 100 µM | > 100 µM | > 100 µM | > 100 µM | > 100 µM |  | > 100 µM |  |  |  |  |  |  |  |  |  |  |
| NNC(=O)CCSc1ccccc1 | > 100 µM | > 100 µM | > 100 µM | > 100 µM | > 100 µM | > 100 µM | > 100 µM | > 100 µM | > 100 µM | > 100 µM |  |  |  |  |  |  |  |  |  |  |
| CN(C)CCCSc1nc2c(c(=N)n1-c1ccccc1)c(=S)n(-c1ccccc1)c(=S)n2-c1ccccc1 | 10.6 µM | 3.18 µM | 24.5 µM | 3.5 µM | 3.04 µM | 3.32 µM | 8.14 µM | 3.2 µM | 3.32 µM | 4.11 µM |  |  |  |  |  |  |  |  |  |  |
| CCOC(=O)C(Cc1cn(C(C)=O)c2ccccc12)P(=O)(OCC)OCC (stereo not drawn) | > 100 µM | > 100 µM | > 100 µM |  | > 100 µM | > 100 µM | > 100 µM | > 100 µM | > 100 µM | > 100 µM |  |  |  |  |  |  |  |  |  |  |
| c1ccc(C(NC2=NCCO2)c2ccccc2)cc1 | > 10 µM | > 10 µM | > 10 µM | > 10 µM | > 10 µM | > 10 µM | > 10 µM | > 10 µM |  | > 10 µM |  |  |  |  |  |  |  |  |  |  |
| Cn1ncc2c(Nc3cccc(Cl)c3)nc(Nc3cccc(Cl)c3)nc21 | 21.1 µM | > 67.5 µM | 38.8 µM | > 42.2 µM | 40 µM | 30.9 µM | > 94 µM | > 100 µM | 25.9 µM | 41.7 µM |  |  |  |  |  |  |  |  |  |  |
| COc1ccc(C(O)(c2ccccc2)c2nccc3ccccc23)cc1 (stereo not drawn) | > 100 µM | > 100 µM | > 100 µM | > 100 µM | > 100 µM | > 100 µM | > 100 µM | > 100 µM | > 100 µM |  |  |  |  |  |  |  |  |  |  |  |
| O=C(O)CCc1nc2ccccc2[nH]1 | > 100 µM | > 100 µM | > 100 µM | > 100 µM | > 100 µM | > 100 µM | > 100 µM | > 100 µM | > 100 µM | > 100 µM |  |  |  |  |  |  |  |  |  |  |
| C/C(=N\NC(=S)N(C)C)c1nc2ncccc2[nH]1 |  | > 100 µM | > 100 µM |  | > 100 µM | > 100 µM | 36.1 µM | > 100 µM | 64.5 µM | > 100 µM |  |  |  |  |  |  |  |  |  |  |
| COc1cc2cc(C(=O)Nc3cc4n(n3)-c3ccccc3C4)[nH]c2c(OC)c1OC | 11.6 µM | 25.6 µM | 17.8 µM | 7.83 µM | 14.3 µM | 9.61 µM | 27.6 µM | 3.78 µM | 9.26 µM | 8.39 µM |  |  |  |  |  |  |  |  |  |  |
| O=[N+]([O-])c1ccc(Oc2c(Cl)cc(S(=O)(=O)/N=C(\NO)Nc3ccc(Cl)cc3)cc2Cl)c(Cl)c1 | 31.1 µM | 27.4 µM | 35.5 µM | 28.4 µM | 26.8 µM | 32.1 µM | 30.6 µM | 54.1 µM | 30.8 µM | 35.7 µM |  |  |  |  |  |  |  |  |  |  |
| O=c1/c(=C/c2ccc([N+](=O)[O-])o2)sc2n1[C@@H](c1ccc(Cl)cc1)C=C(c1cc(F)c(Cl)cc1Cl)N=2 | 72.4 µM | 19.5 µM | 30.6 µM | > 100 µM | 39.9 µM | 26.7 µM | 33.6 µM | 40.8 µM | 30.6 µM | 17.6 µM |  |  |  |  |  |  |  |  |  |  |
| CCOC(=O)CCSc1nc2ccc(I)cc2c(=O)n1Cc1ccccc1 | > 73.3 µM | > 100 µM | > 100 µM | > 100 µM | > 100 µM | > 77.7 µM | > 100 µM | > 100 µM | > 92.2 µM | > 100 µM |  |  |  |  |  |  |  |  |  |  |
| OCCCNc1ncnc2[nH]ncc12 | > 100 µM | > 100 µM | > 100 µM | > 100 µM | > 100 µM | > 100 µM | > 100 µM | > 100 µM | > 100 µM | > 100 µM |  |  |  |  |  |  |  |  |  |  |
| CC(Oc1ccccc1Cl)C(=O)NN1C(=O)CC(=O)NC1=S (stereo not drawn) | > 100 µM | > 100 µM | > 100 µM | > 100 µM | > 100 µM | > 100 µM | > 100 µM | > 100 µM | > 100 µM | > 100 µM |  |  |  |  |  |  |  |  |  |  |
| COc1cc2c(cc1OCCCOS(C)(=O)=O)N=C[C@@H]1CCCN1C2=O | > 100 µM | > 100 µM |  | > 100 µM | > 100 µM | > 100 µM | > 100 µM | > 100 µM | > 100 µM | > 100 µM |  |  |  |  |  |  |  |  |  |  |
| O=C(Nc1ccc(-n2cc(-c3ccncc3)c(-c3ccc(O)c(Cl)c3)n2)cc1)Nc1ccc(Cl)c(C(F)(F)F)c1 | 14.6 µM | 17.2 µM | 19.1 µM | 12.8 µM | 18 µM | 11.8 µM | 19 µM | 21.3 µM | 30.8 µM | 4.52 µM | 2.99 µM | 4.28 µM | 5.29 µM | 3.8 µM | 4.99 µM | 2.95 µM | 5.06 µM | 4.11 µM | 1.97 µM | 7.42 µM |
| O=C(O)c1cc(=O)c2c(OCC(O)COc3cccc4oc(C(=O)O)cc(=O)c34)cccc2o1 | > 100 µM | > 100 µM | > 100 µM | > 100 µM | > 100 µM | > 100 µM | > 100 µM | > 100 µM | > 100 µM | > 79.2 µM |  |  |  |  |  |  |  |  |  |  |
| NC(=O)c1cccc(N=c2oc3ccc(Br)cc3cc2-c2nc3ccccc3[nH]2)c1 | 30.8 µM | 34.4 µM | 30.2 µM | 49 µM | 28.9 µM | 32.1 µM | 28.5 µM | 28.2 µM | 43.4 µM | 38.5 µM |  |  |  |  |  |  |  |  |  |  |
| CC(=O)O[C@@H]1C(=O)N(c2ccccc2)[C@@H]1c1cc2ccccc2c2ccccc12 | > 100 µM | > 100 µM | > 100 µM | > 100 µM | > 100 µM | > 100 µM | > 100 µM | > 100 µM | > 100 µM | 40.6 µM |  |  |  |  |  |  |  |  |  |  |
| CC(C)CC(=O)NC(C(=O)NC(C(=O)NC(CC(C)C)C(O)CC(=O)NC(C)C(=O)NC(CC(C)C)C(O)CC(=O)O)C(C)C)C(C)C (stereo not drawn) | > 100 µM | > 100 µM | > 100 µM | > 100 µM | > 100 µM | > 100 µM | > 100 µM | > 100 µM | > 100 µM | > 100 µM |  |  |  |  |  |  |  |  |  |  |
| Cc1c2c(OCC(O)CN3CCN(c4ccccc4)CC3)nn(C)c(=O)c2c(C)n1-c1ccccc1 (stereo not drawn) | 51.3 µM | 36.5 µM | 62 µM | > 100 µM | > 100 µM | 43.5 µM | > 100 µM | > 100 µM | 72.1 µM | 33.1 µM |  |  |  |  |  |  |  |  |  |  |
| Nc1ccc(Oc2ccc(C3(c4ccc(Oc5ccc(N)cc5)cc4)C4CC5CC(C4)CC3C5)cc2)cc1 | 73.8 µM | 21.9 µM | > 100 µM | 17.7 µM | > 53.5 µM | 35.7 µM | > 100 µM | > 48.9 µM | > 100 µM | > 100 µM |  |  |  |  |  |  |  |  |  |  |
| C#C/C=C\CCCCCCCCCCCCCC/C=C\CCCCC#CC(O)C#CCCCC/C=C\CCCCCC/C=C/C(O)C#C (stereo not drawn) | > 55.6 µM | > 75 µM | > 75 µM | 20.1 µM | > 75 µM | > 62.3 µM | > 75 µM | > 59.5 µM | > 63.4 µM | 37.1 µM |  |  |  |  |  |  |  |  |  |  |
| CC(C)C(=O)CC(c1ccc(Cl)cc1)N1N=C(C(C)C)CC1c1ccc(Cl)cc1 (stereo not drawn) | > 31.6 µM | > 100 µM |  | > 100 µM |  |  | > 100 µM | > 65.8 µM | 49.5 µM | > 92.2 µM |  |  |  |  |  |  |  |  |  |  |
| C/C(=N\NC(=S)NCCCCNC(=S)N/N=C(\C)c1ccccn1)c1ccccc1 | > 37.6 µM | 4.43 µM | > 85.6 µM | > 100 µM | > 50 µM | > 100 µM | > 87.1 µM | 5.63 µM | 9.64 µM | 97.3 µM |  |  |  |  |  |  |  |  |  |  |
| C=CCN1C[C@H](C)N([C@@H](c2ccc(C(=O)N3CCCCC3)cc2)c2cccc(OC)c2)C[C@H]1C | > 100 µM | > 100 µM | > 100 µM | > 100 µM | > 100 µM | > 100 µM | > 100 µM | > 100 µM | 50 µM | 60.3 µM |  |  |  |  |  |  |  |  |  |  |
